From US10000501B2, “Inhibitors of HIF prolyl hydroxylase” (MERCK SHARP & DOHME CORP., priority 2014, dated 2018)

Target: T1, human HIF-PHD2 (Homo sapiens, UniProt Q9GZT9)
T1 construct: FLAG-tagged full length PHD2 expressed in and purified from baculovirus-infected Sf9 cells; FLAG; made in house; host or cells: baculovirus-infected Sf9 cells
Experiment: HIF-PHD2 inhibition assay (hydroxylation of HIF-1α peptide, time resolved fluorescence)
Type: biochemical
Details: FLAG-tagged full length PHD2; 0.2 μM 2-oxoglutarate, 0.5 μM HIF-1α peptide
Protocol: To each well of a 384-well plate, 1 μL of test compounds in DMSO (final concentration ranging from 0.3 nM to 10 uM) were added into 20 μl of assay buffer (50 mM Tris pH 7.4/0.01% Tween-20/0.1 mg/ml bovine serum albumin/10 μM ferrous sulfate/1 mM sodium ascorbate/20 μg/ml catalase) containing 0.15 μg/ml FLAG-tagged full length PHD2 expressed in and purified from baculovirus-infected Sf9 cells. […] Purif.

T1 sequence (Q9GZT9 whole entry): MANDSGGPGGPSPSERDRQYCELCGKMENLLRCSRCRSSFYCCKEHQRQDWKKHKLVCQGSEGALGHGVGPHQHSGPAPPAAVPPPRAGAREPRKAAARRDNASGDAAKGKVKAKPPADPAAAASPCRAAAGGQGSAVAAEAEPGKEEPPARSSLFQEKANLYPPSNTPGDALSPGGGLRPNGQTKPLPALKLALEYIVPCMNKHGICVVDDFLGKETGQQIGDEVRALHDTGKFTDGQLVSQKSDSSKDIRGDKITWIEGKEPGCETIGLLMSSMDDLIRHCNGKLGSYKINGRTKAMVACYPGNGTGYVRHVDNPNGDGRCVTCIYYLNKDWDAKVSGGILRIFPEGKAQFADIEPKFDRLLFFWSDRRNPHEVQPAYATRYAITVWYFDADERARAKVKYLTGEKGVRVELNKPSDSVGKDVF

IC50	SMILES
35.2 nM	N#Cc1cccc(Cn2c3c(c(O)c(C(=O)NCC(=O)O)c2=O)CCOC3)c1 [Example 57, 2-(1-(3-cyanobenzyl)-4-hydroxy-2-oxo-2,5,6,8-tetrahydro-1H-pyrano[3,4-b]pyridine-3-carboxamido)acetic acid]
32.6 nM	Cn1ccc(Cn2c3c(c(O)c(C(=O)NCC(=O)O)c2=O)COCC3)n1 [Example 27, 2-(4-Hydroxy-1-((1-methyl-1H-pyrazol-3-yl)methyl)-2-oxo-2,5,7,8-tetrahydro-1H-pyrano[4,3-b]pyridine-3-carboxamido)acetic acid]
90.1 nM	O=C(O)CNC(=O)c1c(O)c2c(n(Cc3ncc(C(F)(F)F)cn3)c1=O)COCC2 [Example 46, 2-(4-hydroxy-2-oxo-1-((5-(trifluoromethyl)pyrimidin-2-yl)methyl)-2,5,6,8-tetrahydro-1H-pyrano[3,4-b]pyridine-3-carboxamido)acetic acid]
32.8 nM	O=C(O)CNC(=O)c1c(O)c2c(n(Cc3cncs3)c1=O)CCOC2 [Example 31, 2-(4-Hydroxy-2-oxo-1-(thiazol-5-ylmethyl)-2,5,7,8-tetrahydro-1H-pyrano[4,3-b]pyridine-3-carboxamido)acetic acid]
43 nM	O=C(O)CNC(=O)c1c(O)c2c(n(Cc3nc4ccccc4s3)c1=O)C1CCC2C1 (racemic) [Example 82, 2-((5S,8R)-1-(benzo[d]thiazol-2-ylmethyl)-4-hydroxy-2-oxo-1,2,5,6,7,8-hexahydro-5,8-methanoquinoline-3-carboxamido)acetic acid]
28.8 nM	O=C(O)CNC(=O)c1c(O)c2c(n(Cc3ccc(-c4ccc(OC(F)(F)F)cc4)cc3)c1=O)COCC2 [Example 66, 2-(4-hydroxy-2-oxo-1-((4′-(trifluoromethoxy)-[1,1′-biphenyl]-4-yl)methyl)-2,5,6,8-tetrahydro-1H-pyrano[3,4-b]pyridine-3-carboxamido)acetic acid]
19 nM	CN1Cc2c(c(O)c(C(=O)NCC(=O)O)c(=O)n2Cc2ccc(S(C)(=O)=O)cc2)CC1=O [Example 71, 2-(4-hydroxy-7-methyl-1-(4-(methylsulfonyl)benzyl)-2,6-dioxo-1,2,5,6,7,8-hexahydro-1,7-naphthyridine-3-carboxamido)acetic acid]
42.2 nM	CC(C)c1ccc(Cn2c3c(c(O)c(C(=O)NCC(=O)O)c2=O)CCOC3)cc1 [Example 39, 2-(4-hydroxy-1-(4-isopropylbenzyl)-2-oxo-2,5,6,8-tetrahydro-1H-pyrano[3,4-b]pyridine-3-carboxamido)acetic acid]
7.5 nM	CN1Cc2c(c(O)c(C(=O)NCC(=O)O)c(=O)n2Cc2ccc(C#N)cc2)CC1=O [Example 74, 2-(1-(4-cyanobenzyl)-4-hydroxy-7-methyl-2,6-dioxo-1,2,5,6,7,8-hexahydro-1,7-naphthyridine-3-carboxamido)acetic acid]
28.7 nM	CS(=O)(=O)c1ccc(Cn2c3c(c(O)c(C(=O)NCC(=O)O)c2=O)CCOC3)cc1 [Example 41, 2-(4-hydroxy-1-(4-(methylsulfonyl)benzyl)-2-oxo-2,5,6,8-tetrahydro-1H-pyrano[3,4-b]pyridine-3-carboxamido)acetic acid]
16.8 nM	O=C(O)CNC(=O)c1c(O)c2c(n(Cc3cc(F)c(F)cc3F)c1=O)CCOC2 [Example 24, 2-(4-Hydroxy-2-oxo-1-(2,4,5-trifluorobenzyl)-2,5,7,8-tetrahydro-1H-pyrano[4,3-b]pyridine-3-carboxamido)acetic acid]
14.7 nM	O=C(O)CNC(=O)c1c(O)c2c(n(Cc3ccc(F)c(F)c3)c1=O)CCOC2 [Example 15, 2-(1-(3,4-difluorobenzyl)-4-hydroxy-2-oxo-2,5,7,8-tetrahydro-1H-pyrano[4,3-b]pyridine-3-carboxamido)acetic acid]
